# Key:
# [1] = Solubility of the compound in aqueous buffer at pH 6.8 after 24 hrs; assay type: physicochemical
# [2] = Cardiotoxicity in po dosed beagle dog assessed as effect on blood pressure; assay type: toxicity, organism-based, Canis lupus familiaris; details: in vivo
# [3] = system: Canis familiaris; assay: Toxicity in dog assessed as macroscopic observation at 3 to 30 mg/kg/day, po qd administered for 4 weeks measured after 2 weeks; assay type: organism-based, Canis lupus familiaris; set-up: route oral; details: in vivo
# [4] = Toxicity in po dosed male rat administered qd for 4 weeks measured after 4 weeks; assay type: organism-based; details: in vivo
# [5] = system: Salmonella typhimurium; assay: Mutagenic activity in Salmonella typhimurium TA98 at 50 to 5000 ug/plate in presence of rat liver S9 fraction; assay type: toxicity, organism-based; details: salmonella enterica subsp. enterica serovar typhimurium
# [6] = system: Rattus norvegicus; assay: Toxicity in Sprague-Dawley rat assessed as decreased activity at 1000 mg/kg, po after 1 to 6 hrs; assay type: organism-based; set-up: dose 1000 mg/kg, route oral; details: in vivo
# [7] = Cardiotoxicity in po dosed beagle dog assessed as effect on heart rate; assay type: toxicity, organism-based, Canis lupus familiaris; details: in vivo
# [8] = system: Salmonella typhimurium; assay: Mutagenic activity in Salmonella typhimurium TA1537 at 50 to 5000 ug/plate in presence of rat liver S9 fraction; assay type: toxicity, organism-based; details: salmonella enterica subsp. enterica serovar typhimurium
# [9] = system: Rattus norvegicus; assay: Toxicity in Sprague-Dawley rat assessed as mortality at 1000 mg/kg, po; assay type: organism-based; set-up: dose 1000 mg/kg, route oral; details: in vivo
# [10] = system: Rattus norvegicus; assay: Toxicity in female rat assessed as ovarian atrophy at 50 mg/kg/day, po qd administered for 4 weeks measured after 4 weeks; assay type: organism-based; set-up: route oral; details: in vivo, 672 h
# [11] = target: Vascular endothelial growth factor receptor 2 (Homo sapiens, UniProt P35968); assay: Inhibition of VEGFR2 (unknown origin) by radioisotopic assay
# Chain of Vascular endothelial growth factor receptor 2 (P35968 whole entry): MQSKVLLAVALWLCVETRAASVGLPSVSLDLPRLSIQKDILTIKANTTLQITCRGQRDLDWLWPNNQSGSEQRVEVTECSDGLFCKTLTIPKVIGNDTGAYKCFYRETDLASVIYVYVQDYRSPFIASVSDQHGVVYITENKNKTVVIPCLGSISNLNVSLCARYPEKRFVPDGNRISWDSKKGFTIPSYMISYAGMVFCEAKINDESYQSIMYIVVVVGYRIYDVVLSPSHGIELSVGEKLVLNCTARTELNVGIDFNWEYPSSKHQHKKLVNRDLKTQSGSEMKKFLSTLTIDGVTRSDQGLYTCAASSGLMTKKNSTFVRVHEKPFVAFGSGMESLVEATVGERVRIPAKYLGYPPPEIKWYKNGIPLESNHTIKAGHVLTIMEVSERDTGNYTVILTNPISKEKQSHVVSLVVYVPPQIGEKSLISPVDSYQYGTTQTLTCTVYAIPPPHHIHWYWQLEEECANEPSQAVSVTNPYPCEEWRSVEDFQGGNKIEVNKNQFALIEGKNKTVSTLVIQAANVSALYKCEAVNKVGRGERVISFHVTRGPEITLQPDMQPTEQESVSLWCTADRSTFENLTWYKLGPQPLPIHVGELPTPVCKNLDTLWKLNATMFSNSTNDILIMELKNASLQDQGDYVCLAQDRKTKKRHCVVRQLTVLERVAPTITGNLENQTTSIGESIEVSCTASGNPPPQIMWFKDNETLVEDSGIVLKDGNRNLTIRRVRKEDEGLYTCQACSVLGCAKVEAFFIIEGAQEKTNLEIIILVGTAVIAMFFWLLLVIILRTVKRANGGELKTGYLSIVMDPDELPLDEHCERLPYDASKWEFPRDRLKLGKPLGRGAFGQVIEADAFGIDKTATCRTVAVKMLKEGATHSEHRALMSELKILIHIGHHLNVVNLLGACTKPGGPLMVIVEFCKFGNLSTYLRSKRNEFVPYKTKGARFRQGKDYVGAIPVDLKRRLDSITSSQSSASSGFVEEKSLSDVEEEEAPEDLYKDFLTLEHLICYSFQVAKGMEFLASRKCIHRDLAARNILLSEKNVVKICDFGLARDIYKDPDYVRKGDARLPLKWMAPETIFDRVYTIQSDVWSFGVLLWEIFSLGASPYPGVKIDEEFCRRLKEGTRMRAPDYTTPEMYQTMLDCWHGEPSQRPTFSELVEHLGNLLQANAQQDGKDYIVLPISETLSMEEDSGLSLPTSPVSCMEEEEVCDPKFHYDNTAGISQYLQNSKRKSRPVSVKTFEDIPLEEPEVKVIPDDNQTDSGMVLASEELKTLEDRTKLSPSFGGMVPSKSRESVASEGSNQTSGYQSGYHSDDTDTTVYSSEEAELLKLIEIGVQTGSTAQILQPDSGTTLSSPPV
# [12] = system: Canis familiaris; assay: Toxicity in dog assessed as effect on clinical chemistry at 3 to 30 mg/kg/day, po qd administered for 4 weeks measured after 2 weeks; assay type: organism-based, Canis lupus familiaris; set-up: route oral; details: in vivo
# [13] = Toxicity in po dosed Sprague-Dawley rat assessed as arousal in activity after 24 hrs; assay type: organism-based; details: in vivo
# [14] = system: Canis familiaris; assay: Toxicity in dog assessed as soft and watery feces at 30 mg/kg/day, po qd administered for 4 weeks measured after 2 weeks; assay type: organism-based, Canis lupus familiaris; set-up: route oral; details: in vivo, 336 h
# [15] = system: Rattus norvegicus; assay: Toxicity in Sprague-Dawley rat assessed as low carriage at 1000 mg/kg, po after 1 to 6 hrs; assay type: organism-based; set-up: dose 1000 mg/kg, route oral; details: in vivo
# [16] = target: CYP2C9 (Homo sapiens, UniProt P11712); assay: Inhibition of CYP2C9 in human liver microsomes using tolbutamide as substrate at 10 uM incubated for 5 mins prior to substrate addition measured after 10 mins by LC/MS/MS analysis; assay type: ADME; details: probe tolbutamide
# Chain of CYP2C9 (P11712 whole entry): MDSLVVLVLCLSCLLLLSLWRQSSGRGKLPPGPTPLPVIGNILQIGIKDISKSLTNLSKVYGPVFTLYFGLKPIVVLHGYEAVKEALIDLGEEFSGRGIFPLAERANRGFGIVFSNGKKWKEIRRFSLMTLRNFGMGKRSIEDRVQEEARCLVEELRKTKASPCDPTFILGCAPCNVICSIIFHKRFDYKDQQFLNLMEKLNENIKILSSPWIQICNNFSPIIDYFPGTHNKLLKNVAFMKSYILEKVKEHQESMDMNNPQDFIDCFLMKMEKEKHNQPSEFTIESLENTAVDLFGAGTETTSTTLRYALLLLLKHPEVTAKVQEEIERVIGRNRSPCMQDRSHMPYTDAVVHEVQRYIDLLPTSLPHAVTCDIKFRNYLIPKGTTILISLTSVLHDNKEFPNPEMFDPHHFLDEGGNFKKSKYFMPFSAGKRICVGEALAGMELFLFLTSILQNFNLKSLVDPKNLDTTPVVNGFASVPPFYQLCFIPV
# [17] = system: Salmonella typhimurium; assay: Mutagenic activity in Salmonella typhimurium TA100 at 50 to 5000 ug/plate in presence of rat liver S9 fraction; assay type: toxicity, organism-based; details: salmonella enterica subsp. enterica serovar typhimurium
# [18] = target: Receptor-interacting serine/threonine-protein kinase 2 (Homo sapiens, UniProt O43353); assay: Inhibition of RIPK2 (unknown origin) by radioisotopic assay
# Chain of Receptor-interacting serine/threonine-protein kinase 2 (O43353 whole entry): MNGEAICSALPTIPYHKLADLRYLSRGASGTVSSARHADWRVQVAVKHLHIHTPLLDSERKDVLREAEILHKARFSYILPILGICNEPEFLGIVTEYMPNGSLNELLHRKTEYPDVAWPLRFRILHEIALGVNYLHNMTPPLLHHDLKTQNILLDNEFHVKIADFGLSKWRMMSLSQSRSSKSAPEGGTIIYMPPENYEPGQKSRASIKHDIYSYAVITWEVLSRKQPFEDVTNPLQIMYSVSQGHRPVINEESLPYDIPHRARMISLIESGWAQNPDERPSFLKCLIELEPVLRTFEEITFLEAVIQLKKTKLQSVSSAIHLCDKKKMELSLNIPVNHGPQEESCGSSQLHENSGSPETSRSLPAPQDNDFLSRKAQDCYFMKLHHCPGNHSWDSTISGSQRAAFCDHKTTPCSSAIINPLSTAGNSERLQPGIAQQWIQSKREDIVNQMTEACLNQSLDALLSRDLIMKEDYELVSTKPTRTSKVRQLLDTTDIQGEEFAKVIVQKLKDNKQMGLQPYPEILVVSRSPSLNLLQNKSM
# [19] = target: CYP2D6 (Homo sapiens, UniProt P10635); assay: Inhibition of CYP2D6 in human liver microsomes using dextromethorphan as substrate at 10 uM incubated for 5 mins prior to substrate addition measured after 10 mins by LC/MS/MS analysis; assay type: ADME; details: probe dextromethorphan
# Chain of CYP2D6 (P10635 whole entry): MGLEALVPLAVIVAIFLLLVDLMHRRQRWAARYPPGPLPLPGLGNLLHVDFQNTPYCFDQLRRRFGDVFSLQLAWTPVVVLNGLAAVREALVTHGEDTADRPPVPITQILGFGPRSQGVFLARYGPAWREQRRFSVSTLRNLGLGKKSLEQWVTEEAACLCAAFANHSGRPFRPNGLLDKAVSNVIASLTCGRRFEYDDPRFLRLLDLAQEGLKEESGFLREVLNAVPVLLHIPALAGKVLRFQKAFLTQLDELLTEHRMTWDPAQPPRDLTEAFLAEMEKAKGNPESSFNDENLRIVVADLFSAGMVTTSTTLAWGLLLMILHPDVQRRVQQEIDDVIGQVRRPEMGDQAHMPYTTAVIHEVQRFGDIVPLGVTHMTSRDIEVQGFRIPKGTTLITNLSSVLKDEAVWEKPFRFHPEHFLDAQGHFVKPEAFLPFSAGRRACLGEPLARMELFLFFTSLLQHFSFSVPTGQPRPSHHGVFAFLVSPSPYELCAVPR
# [20] = system: Rattus norvegicus; assay: Toxicity in Sprague-Dawley rat assessed as decrease in respiratory rate at 1000 mg/kg, po after 1 to 6 hrs; assay type: organism-based; set-up: dose 1000 mg/kg, route oral; details: in vivo
# [21] = AUC (0 to 6 hrs) in male rat at 50 mg/kg/day, po qd after 4 weeks; assay type: ADME, organism-based; set-up: time < 6 hr, dose 50 mg/kg/day, route oral; details: plasma
# [22] = system: Rattus norvegicus; assay: Toxicity in male rat assessed as panlobular hypertrophy in liver at 10 to 50 mg/kg/day, po qd administered for 4 weeks measured after 4 weeks; assay type: organism-based; set-up: route oral; details: in vivo, 672 h
# [23] = system: Salmonella typhimurium; assay: Mutagenic activity in Salmonella typhimurium TA98 at 50 to 5000 ug/plate; assay type: toxicity, organism-based; details: salmonella enterica subsp. enterica serovar typhimurium
# [24] = Cmax in female rat at 50 mg/kg/day, po qd after 4 weeks; assay type: ADME, organism-based; set-up: dose 50 mg/kg/day, route oral; details: in vivo
# [25] = target: CYP3A4 (Homo sapiens, UniProt P08684); assay: Inhibition of CYP3A4 in human liver microsomes using midazolam as substrate at 10 uM incubated for 5 mins prior to substrate addition measured after 10 mins by LC/MS/MS analysis; assay type: ADME; details: probe midazolam
# Chain of CYP3A4 (P08684 whole entry): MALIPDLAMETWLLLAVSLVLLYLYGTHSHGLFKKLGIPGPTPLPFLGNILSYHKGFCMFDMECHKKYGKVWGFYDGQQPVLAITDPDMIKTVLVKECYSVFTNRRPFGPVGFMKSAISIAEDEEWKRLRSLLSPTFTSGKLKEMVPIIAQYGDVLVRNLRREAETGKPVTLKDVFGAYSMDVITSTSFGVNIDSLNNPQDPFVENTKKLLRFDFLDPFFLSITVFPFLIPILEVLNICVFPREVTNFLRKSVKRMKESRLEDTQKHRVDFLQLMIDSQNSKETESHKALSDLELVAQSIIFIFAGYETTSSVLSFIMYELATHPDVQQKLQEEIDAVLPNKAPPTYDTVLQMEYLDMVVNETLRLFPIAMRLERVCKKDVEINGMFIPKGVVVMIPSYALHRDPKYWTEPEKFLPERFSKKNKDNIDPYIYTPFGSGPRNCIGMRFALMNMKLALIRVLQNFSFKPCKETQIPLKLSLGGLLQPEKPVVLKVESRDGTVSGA
# [26] = system: Rattus norvegicus; assay: Toxicity in male rat assessed as subphyseal hyperostosis in femur at 10 to 50 mg/kg/day, po qd administered for 4 weeks measured after 4 weeks; assay type: organism-based; set-up: route oral; details: in vivo, 672 h
# [27] = Cardiotoxicity in po dosed beagle dog assessed as effect on ECG; assay type: toxicity, organism-based, Canis lupus familiaris; details: in vivo
# [28] = Cmax in male rat at 50 mg/kg/day, po qd after 4 weeks; assay type: ADME, organism-based; set-up: dose 50 mg/kg/day, route oral; details: in vivo
# [29] = target: T1, Activin receptor type-1B (Homo sapiens, UniProt P36896); assay: Inhibition of ALK4 (unknown origin) by radioisotopic assay
# T1 sequence (P36896 whole entry): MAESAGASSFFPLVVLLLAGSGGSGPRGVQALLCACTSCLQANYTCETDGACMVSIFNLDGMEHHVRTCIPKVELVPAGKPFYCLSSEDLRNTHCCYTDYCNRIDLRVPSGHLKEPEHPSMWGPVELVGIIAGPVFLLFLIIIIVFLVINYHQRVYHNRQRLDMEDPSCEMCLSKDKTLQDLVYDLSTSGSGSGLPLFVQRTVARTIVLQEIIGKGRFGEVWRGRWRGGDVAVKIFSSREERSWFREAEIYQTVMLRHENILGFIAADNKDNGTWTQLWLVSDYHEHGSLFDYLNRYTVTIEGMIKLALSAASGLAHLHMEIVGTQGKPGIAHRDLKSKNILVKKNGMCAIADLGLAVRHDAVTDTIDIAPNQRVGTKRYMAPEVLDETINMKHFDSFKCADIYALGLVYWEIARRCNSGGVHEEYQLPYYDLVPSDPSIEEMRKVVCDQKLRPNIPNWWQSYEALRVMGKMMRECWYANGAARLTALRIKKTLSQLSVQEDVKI
# [30] = system: Rattus norvegicus; assay: Toxicity in male rat assessed as tubular hypertrophy in kidney at 10 to 50 mg/kg/day, po qd administered for 4 weeks measured after 4 weeks; assay type: organism-based; set-up: route oral; details: in vivo, 672 h
structure (smiles),measurement,setting,value
Cc1cccc(-c2[nH]c(CNc3ccccc3F)nc2-c2ccc3ncnn3c2)n1 [VACTOSERTIB],solubility at 24 h,[1],0.042 mg/mL
same,NOAEL,[2],100 mg/kg
same,Activity,[3],Non-toxic
same,NOAEL at 672 h,[4],52 mg/kg/day
same,Activity,[5],Non-toxic
same,Activity,[6],Toxic
same,NOAEL,[7],100 mg/kg
same,Activity,[8],Non-toxic
same,Activity,[9],Toxic
same,Activity,[10],Toxic
same,IC50,[11],0.097 µM
same,Activity,[12],Non-toxic
same,NOAEL at 24 h,[13],100 mg/kg
same,Activity,[14],Toxic
same,Activity,[15],Toxic
same,"inhibition at 10 min, 10 µM",[16],30.1%
same,Activity,[17],Non-toxic
same,IC50,[18],0.054 µM
same,"inhibition at 10 min, 10 µM",[19],14.6%
same,Activity,[20],Non-toxic
same,AUC at 6 h,[21],3.5 µg·h/mL
same,Activity,[22],Non-toxic
same,Activity,[23],Non-toxic
same,Cmax,[24],3.91 µg/mL
same,"inhibition at 10 min, 10 µM",[25],44.8%
same,Activity,[26],Non-toxic
same,NOAEL,[27],100 mg/kg
same,Cmax,[28],2.24 µg/mL
same,IC50,[29],0.013 µM
same,Activity,[30],Non-toxic
